Laboratory results from patent publication US10160785B2, “Antimicrobial peptides and their use for the treatment of topical infections” (priority 2015, dated 2018).
Where a SMILES comes first, the peptide text is derived from it.

Legend:
Candida albicans Olomouc = settings: Candida albicans Olomouc; YPD medium; 37° C., 20 h (Example 2)
[1] = tested on: Enterococcus faecalis Motol; settings: BHI medium, 37° C., 20 h
Escherichia coli = settings: 37° C., 20 h
In short: (§1)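 Exponential-phase cultures were diluted and added at ca 10^5 CFU per well to twofold serial dilutions of peptide (final 0.1–100 μmol.l^−1) in LB medium.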

[2] = tested on: Methicillin resistant Staphylococcus aureus (MRSA) 6271; settings: 37° C., 20 h
In short: as §1

Micrococcus luteus = settings: Micrococcus luteus; 37° C., 20 h
In short: as §1

[3] = tested on: Pseudomonas aeruginosa 5482; settings: 37° C., 20 h
In short: as §1

[4] = tested on: Pseudomonas aeruginosa Liberec; settings: Pseudomonas aeruginosa Liberec; 37° C., 20 h
In short: as §1

[5] = tested on: Staphylococcus aureus Liberec; settings: Staphylococcus aureus Liberec clinical isolate; 37° C., 20 h
In short: as §1

[6] = tested on: Staphylococcus aureus Motol; settings: Staphylococcus aureus Motol clinical isolate; 37° C., 20 h
In short: as §1

[7] = tested on: Staphylococcus epidermidis Motol; settings: 37° C., 20 h
In short: as §1

in vitro = settings: human
In short: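 Hemolysis expressed as LC50, the concentration giving 50% erythrocyte lysis. Supernatant A540 was scaled between buffer-only blank and 0.2% Triton X100 total lysis after 1 h, 37 °C exposure of 5% v/v human red cells to 2-200 μmol.l^−1 peptide in physiological solution.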

[8] = tested on: Candida albicans (Olomouc) biofilm; test: C. albicans biofilm, remaining metabolic activity (XTT); type: cell-based
In short: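 Candida albicans (Olomouc) biofilms grown 48 h at 37 °C in MOPS-buffered RPMI 1640 from 1×10^6 CFU inocula, then exposed 20 h to peptide at 0.39-200 μmol.l^−1. XTT/PMS staining for 90 min, A540; remaining metabolic activity expressed as percent of untreated biofilm after blank correction.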

For `CCCC[C@H](NC(=O)[C@H](CC(C)C)NC(=O)[C@H](CO)NC(=O)[C@H](CO)NC(=O)[C@H](CCCC)NC(=O)[C@@H](NC(=O)CN)[C@@H](C)CC)C(=O)N[C@@H](CCCCN)C(=O)N[C@@H](CCCCN)C(=O)N[C@@H](CC(C)C)C(=O)N[C@@H](CCCCN)C(=O)N[C@@H](CCCCN)C(=O)N[C@H](C(=O)N[C@H](C(=O)N[C@@H](C)C(=O)N[C@@H](CCCCN)C(N)=O)[C@@H](C)CC)[C@@H](C)CC` [V] (HELM PEPTIDE1{G.I.[Nle].S.S.L.[Nle].K.K.L.K.K.I.I.A.K.[am]}$$$$V2.0), which “Antimicrobial activity MIC C. a. Olomouc” value (Candida albicans Olomouc) is on record?
Its value is 10.0 µM.

And the “Antimicrobial activity MIC E. f. Motol” value [1]?
Its value is 54.0 µM.

And the “Antimicrobial activity MIC E. c.” value (Escherichia coli)?
The value was 10.0 µM.

And the “Antimicrobial activity MIC S. a. 6271” value [2]?
Its value is 12.7 µM.

What about the “Antimicrobial activity MIC M. l.” value (Micrococcus luteus) of the same compound?
The value was 1.6 µM.

What about the “Antimicrobial activity MIC P. a. 5482” value [3] of the same compound?
Its value is 4.0 µM.

And the “Antimicrobial activity MIC P. a. Liberec” value [4]?
Its value is 7.9 µM.

What about the “Antimicrobial activity MIC S. a. Liberec” value [5] of the same compound?
The value was 4.0 µM.

And the “Antimicrobial activity MIC S. a. Motol” value [6]?
Its value is 6.7 µM.

And the “Antimicrobial activity MIC S. e. Motol” value [7]?
Its value is 2.5 µM.

And the HC50 at 1 h (in vitro)?
Its HC50 at 1 h is 373 µM.

What about the “Metabolic activity of C. albicans (%)” value ([8]; peptide concentration 6.25 μmol · l^−1, 20 hours) of the same compound?
The value was 106.4%.

What about the “Metabolic activity of C. albicans (%)” value ([8]; peptide concentration 12.5 μmol · l^−1, 20 hours) of the same compound?
The value was 89.5%.

And the “Metabolic activity of C. albicans (%)” value ([8]; peptide concentration 25 μmol · l^−1, 20 hours)?
The value was 45.0%.

And the “Metabolic activity of C. albicans (%)” value ([8]; peptide concentration 50 μmol · l^−1, 20 hours)?
Its value is 6.9%.

What about the “Metabolic activity of C. albicans (%)” value ([8]; peptide concentration 100 μmol · l^−1, 20 hours) of the same compound?
Its value is 2.4%.

What about the “Metabolic activity of C. albicans (%)” value ([8]; peptide concentration 200 μmol · l^−1, 20 hours) of the same compound?
Its value is 0.4%.
